Test results reported in ChEMBL document CHEMBL4334425, “Eradicating uropathogenic Escherichia coli biofilms with a ciprofloxacin-dinitroxide conjugate” (Medchemcomm, 2019).
Active and inactive are the calls of the source. The calls are words filed in the database; no cut-off is given here.

How the values were obtained:
Escherichia coli [1] = test: Antibacterial activity against Escherichia coli UTI89 incubated for 18 hrs by broth microdilution method; assay type: functional
Escherichia coli [2] = test: Antibacterial activity against Escherichia coli UTI89 incubated for 18 hrs in presence of 1:2 ratio of ciprofloxacin to compound by broth microdilution method; assay type: functional
Escherichia coli [3] = test: Antibiofilm activity against Escherichia coli UTI89 incubated for 24 hrs; assay type: functional
Escherichia coli [4] = test: Antibiofilm activity against Escherichia coli UTI89 incubated for 24 hrs in presence of 1:2 ratio of ciprofloxacin to compound; assay type: functional
Escherichia coli [5] = test: Ratio of MBEC for ciprofloxacin to compound for antibiofilm activity against Escherichia coli UTI89; assay type: functional
Escherichia coli [6] = test: Antibiofilm activity against Escherichia coli UTI89 assessed as reduction in biofilm residing cells at 12.5 uM incubated for 24 hrs relative to control; assay type: functional; parameters: scale not given: the % may be the effect or the level left
Escherichia coli [7] = test: Antibiofilm activity against Escherichia coli UTI89 assessed as reduction in viable bioflim associated cells at 12.5 uM incubated for 24 hrs relative to control; assay type: functional
Escherichia coli [8] = test: Antibiofilm activity against Escherichia coli UTI89 assessed as small bacterial cells at 400 uM incubated for 24 hrs by SYTO9 and PI staining based fluorescence microscopic method; assay type: functional, organism-based
Escherichia coli [9] = test: Antibiofilm activity against Escherichia coli UTI89 assessed as dead cells at 400 uM incubated for 24 hrs by SYTO9 and PI staining based fluorescence microscopic method; assay type: functional, organism-based
Escherichia coli [10] = test: Antibiofilm activity against Escherichia coli UTI89 at 12.5 uM incubated for 24 hrs by SYTO9 and PI staining based fluorescence microscopic method; assay type: functional
Escherichia coli [11] = test: Antibiofilm activity against Escherichia coli UTI89 at 400 uM incubated for 24 hrs by SYTO9 and PI staining based fluorescence microscopic method; assay type: functional
Escherichia coli [12] = test: Antibiofilm activity against Escherichia coli UTI89 assessed as cell filamentation at 12.5 to 25 uM incubated for 24 hrs by SYTO9 and PI staining based fluorescence microscopic method; assay type: functional, organism-based
Escherichia coli [13] = test: Potentiation of ciprofloxacin-induced antibiofilm activity against Escherichia coli UTI89 assessed as increase in ciprofloxacin-induced log reduction in CFU at 20 uM incubated for 24 hrs; assay type: functional
Escherichia coli [14] = test: Potentiation of ciprofloxacin-induced antibiofilm activity against Escherichia coli UTI89 assessed as increase in ciprofloxacin-induced log reduction in CFU at 40 uM incubated for 24 hrs; assay type: functional
Escherichia coli [15] = test: Potentiation of ciprofloxacin-induced antibiofilm activity against Escherichia coli UTI89 assessed as increase in ciprofloxacin-induced log reduction in CFU at 80 uM incubated for 24 hrs; assay type: functional
Escherichia coli [16] = test: Potentiation of ciprofloxacin-induced antibiofilm activity against Escherichia coli UTI89 assessed as increase in ciprofloxacin-induced reduction in CFU at 20 uM incubated for 24 hrs relative to control; assay type: functional; parameters: scale not given: the % may be the effect or the level left
Escherichia coli [17] = test: Potentiation of ciprofloxacin-induced antibiofilm activity against Escherichia coli UTI89 assessed as increase in ciprofloxacin-induced reduction in CFU at 40 uM incubated for 24 hrs relative to control; assay type: functional; parameters: scale not given: the % may be the effect or the level left
Escherichia coli [18] = test: Potentiation of ciprofloxacin-induced antibiofilm activity against Escherichia coli UTI89 assessed as increase in ciprofloxacin-induced reduction in CFU at 80 uM incubated for 24 hrs relative to control; assay type: functional; parameters: scale not given: the % may be the effect or the level left
T-24 = test: Cytotoxicity against human T24 cells assessed as reduction in cell viability incubated for 24 hrs by LDH assay; assay type: cell-based
[19] = Escherichia coli, UTI89, 18 h, read-out: MIC

With CC1(C)CC(C(=O)O)CC(C)(C)N1[O] the MIC (Escherichia coli [1]) was >1000 µM, the MIC (Escherichia coli [2]) was “<=0.045 uM” and the MBEC (Escherichia coli [3]) was >1000 µM. The MBEC (Escherichia coli [4]) was “<=800 uM”.

In the case of O=C(O)c1cn(C2CC2)c2cc(N3CCNCC3)c(F)cc2c1=O [CIPROFLOXACIN], the MIC (Escherichia coli [1]; [19]) is reported as ≤ 0.045 µM and the MBEC (Escherichia coli [3]) is reported as “<=800 uM”.

For CC1(C)CC(C(=O)NCCCC[C@H](NC(=O)[C@@H](N)CCCCNC(=O)C2CC(C)(C)N([O])C(C)(C)C2)C(=O)N2CCN(c3cc4c(cc3F)c(=O)c(C(=O)O)cn4C3CC3)CC2)CC(C)(C)N1[O], the MIC (Escherichia coli [1]) was “<=10.5 uM”, the MBEC (Escherichia coli [3]) was “<=400 uM” and the Ratio (Escherichia coli [5]) was 2. The Activity (Escherichia coli [6]) was 99.7%, the “fold change (FC)” value (Escherichia coli [7]) was 3 and the Activity (Escherichia coli [8]) was “Active”. The Activity (Escherichia coli [9]) was “Active”, the Activity (Escherichia coli [10]) was >99% and the Activity (Escherichia coli [11]) was 99.9%. For the same molecule, the Activity (Escherichia coli [12]) was “Active”, the Activity (Escherichia coli [13]) was 1.35 log10CFU and the Activity (Escherichia coli [14]) was 1.82 log10CFU. It also gave an Activity (Escherichia coli [15]) of 2.69 log10CFU, an Activity (Escherichia coli [16]) of 98% and an Activity (Escherichia coli [17]) of 93%. The Activity (Escherichia coli [18]) was 50% and the IC50 (T-24) was > 500 µM.

CON1C(C)(C)CC(C(=O)NCCCC[C@H](N)C(=O)N2CCN(c3cc4c(cc3F)c(=O)c(C(=O)O)cn4C3CC3)CC2)CC1(C)C was tested, and the MIC (Escherichia coli [1]; [19]) was ≤ 30.6 µM and the MBEC (Escherichia coli [3]) was >1000 µM.

With CC1(C)CC(C(=O)NCCCC[C@H](N)C(=O)N2CCN(c3cc4c(cc3F)c(=O)c(C(=O)O)cn4C3CC3)CC2)CC(C)(C)N1[O] the MIC (Escherichia coli [1]) was < 1.95 µM and the MBEC (Escherichia coli [3]) was > 1000 µM.

In the case of CON1C(C)(C)CC(C(=O)NCCCC[C@H](NC(=O)[C@@H](N)CCCCNC(=O)C2CC(C)(C)N(OC)C(C)(C)C2)C(=O)N2CCN(c3cc4c(cc3F)c(=O)c(C(=O)O)cn4C3CC3)CC2)CC1(C)C, the MIC (Escherichia coli [1]; [19]) is reported as ≤ 81.6 µM and the MBEC (Escherichia coli [3]) is reported as >650 µM.
